Patent US10570179B2, “Substituted urea depsipeptide analogs as activators of the CLPP endopeptidase” (priority 2016, dated 2020)
Values after ≈ are worked out from the molar mass of the structure shown. Numbered stars: 1 amine (or outer) side, 2 acyl side, 3 side chain; on linkers, the order of the positions; unused ones are H or OH. Bridge positions count the residues as written; N and C are the ends. Square brackets hold non-standard residues; d marks the D form. Peptide text beside a SMILES is read from it. * marks the point of attachment. Piperazine(2S-CO,4-Me) = CN1CCN[C@H](C(=O)O)C1; NH(1,3-benzodioxol-5-yl) = c1cc2c(cc1N*)OCO2; Morpholine(3S-CO) = O=C(O)[C@@H]1COCCN1; Phe(3-Me) = Cc1cccc(C[C@H](N)C(=O)O)c1; NH(4-Cl-2-F-phenyl) = Fc1cc(Cl)ccc1N*; Pro(4R-Me) = C[C@H]1CN[C@H](C(=O)O)C1; Hyp = O=C(O)[C@@H]1C[C@@H](O)CN1; aThr = C[C@H](O)[C@H](N)C(=O)O; X3 = c1cc2c(cc1N*)OCCO2; CO = O=C([*:1])[*:2]

Columns and labels:
S. aureus ΔClpP = assay: Minimal inhibitory concentration, microbroth dilution; assay type: cell-based, Staphylococcus aureus; details: MIC; ClpP inactivated
Summary of the method: (§1)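 Growth inhibition was scored visually after overnight aerobic culture at 37 °C in CLSI-style microdilution plates. Inocula contained about 10^5 cfu/mL, and compound concentrations descended in twofold steps from 200 μM.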

[1] = Microsomal metabolic stability; assay type: in vitro ADME, mouse; details: CD-1, mouse, pH 7.4
Method: Compounds were initially prepared by dissolving them into DMSO at a final concentration of 10 mM. NADPH regenerating solutions A and B and mouse liver microsomes (CD-1) were obtained from BD Gentest (Woburn, Mass.). Ninety-six well deep well plates were obtained from MidWest Scientific Inc (Valley Park, Mo.).
Sample preparation for microsomal stability was modified from methods of Di, L., et al., Int J Pharm. 2005 Jun. 13; 297(1-2):110-9. A set of incubation times of 0, 15, 30, 60, 120, and 240 minutes were used. Mouse liver microsomal solutions were prepared by adding 58 μL of concentrated human or mouse liver microsomes (20 mg/mL protein concentration) to 1.756 mL of 0.1 M potassium phosphate buffer (pH 7.4) and 5 μL of 0.5 M EDTA to make a 0.6381 mg/mL (protein) microsomal solution. NADPH regenerating agent contained 113 μL of NADPH A, 23 μL of NADPH B, and 315 μL of 0.1 M potassium phosphate buffer (pH 7.4). The diluted test compound solutions (2 μL) were each added directly to a 1.79 mL of liver microsomal solution. This solution was mixed and 90 μL was transferred to 6 time points plates (each in triplicate wells). For the time 0 plate, 225 μL of cold acetonitrile with internal standard ([…] warfarin) was added to each well, followed by addition of NADPH regenerating agent (22.5 μL) and no incubation. For other five time points' plate, NADPH regenerating agent (22.5 μL) was added to each well to initiate the reaction. The plates were incubated at 37° C. for the required time, followed by quenching of the reaction by adding 225 μL of cold acetonitrile with internal standard (4 μg/ml warfarin). All of the plates were sealed and mixed well at 600 rpm for 10 minutes followed by centrifugation at 4000 rpm for 20 minutes. The supernatants (120 μL) were transferred to analytical plates for analysis by LCMS. LCMS conditions were described in the materials and instrumentation section above. The metabolic stability is evaluated via the half-life from least-squares fit of the multiple time points based on first-order kinetics.

Sa-ClpP = molecular target: T1, Sa-ClpP (Staphylococcus aureus, UniProt Q2G036); assay: ADEP displacement fluorescence polarization assay; assay type: binding, S. aureus; details: displacement of FP probe ADEP 2591 from Sa-ClpP
T1 construct: made in house; host or cells: E. coli BL21 (DE3)
T1 sequence (Q2G036 whole entry): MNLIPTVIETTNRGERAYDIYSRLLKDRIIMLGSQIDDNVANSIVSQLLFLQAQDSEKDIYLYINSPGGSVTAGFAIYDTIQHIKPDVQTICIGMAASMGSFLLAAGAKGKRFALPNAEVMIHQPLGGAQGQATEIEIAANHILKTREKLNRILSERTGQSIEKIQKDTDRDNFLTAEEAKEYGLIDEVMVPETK
Method: A fluorescence polarization (FP) assay was used to determine the activity of the disclosed compounds in displacing an ADEP analogue from ClpP. Briefly, the assay was performed in black 384 well, flat bottom, low volume plates (Greiner Bio-One, Monroe, N.C., catalog #784076). 20 μL of a pre-equilibrated (1 hr, room temperature) master mix (15 μM Sa-ClpP, 2% DMSO (v/v) and 50 nM FP probe in TrisHCl, pH 8.0)) was pipetted into each well using a Well-Mate (Thermo Scientific, Waltham, Mass.). Sa-ClpP was prepared as described above for the ClpP activation assay. The FP probe was ADEP 2591 (structure shown above). The ADEP 2591 comprises a TAMRA fluorophore linked to a core based on modified ADEP 2378 via a short alkyl linker. Using pin transfer, approximately 0.4 μL (2% v/v DMSO) of each compound or control was added per well. After addition of compounds and controls, plates were allowed to incubate for an additional 120 minutes at room temperature. All assays were performed in triplicate. Polarization was monitored using an EnVision Multilabel reader (Perkin-Elmer, Waltham, Mass.) by exciting the FP probe at 530±25 nm, and monitoring fluorescence intensity of both parallel and perpendicular polarized light at 579±25 nm. Readout was in millipolarization units (mP).
Signal gain and G factors were determined in wells containing 200 μM ADEP 2378, which had been previously verified (data not shown) as containing completely unbound ADEP 2591. Data collected was normalized to values obtained from positive (200 μM ADEP 2378) or negative (DMSO) controls. Curves were fit with non-linear regression using the equation “log [inhibitor] vs. Response-variable slope (four parameters)-symmetrical” in the program Prism 6 (GraphPad Software, La Jolla, Calif. USA, www.graphpad.com). The structures for ADEP 2378 and ADEP 2591 are shown above. ADEP 2378 is (E)-N—((S)-1-(((2R,6S,8aS,14aS,20S,23aS)-2,6-dimethyl-5,8,14,19,23-pentaoxooctadecahydro-1H,5H,14H,19H-pyrido[2,1-i]dipyrrolo[2,1-c:2′,1′-1][1]oxa[4,7,10,13]tetraazacyclohexadecin-20-yl)amino)-1-oxo-3-phenylpropan-2-yl)pent-2-enamide. ADEP 2591 is 5-(3-(3-((6S,9S,11aS,17S,20aS)-6,10-dimethyl-5,8,11,16,20-pentaoxo-17-((S)-2-((E)-pent-2-enamido)-3-phenylpropanamido)hexadecahydro-1H,5H,16H-dipyrrolo[2,1-c:2′,1′-1][1]oxa[4,7,10,13]tetraazacyclohexadecin-9-yl)propyl)thioureido)-2-(6-(dimethylamino)-3-(dimethyliminio)-3H-xanthen-9-yl)benzoate.

MRSA NRS70 = assay: Minimal inhibitory concentration, microbroth dilution; assay type: cell-based; details: Staphylococcus aureus; MIC; read-out: Minimal Inhibitory Concentrations (μM) MRSA NRS70
Summary of the method: as §1

E. faecails = assay: as above; assay type: cell-based; details: Enterococcus faecalis; MIC; read-out: Minimal Inhibitory Concentrations (μM) E. faecails
Summary of the method: as §1

S. aureus USA 300 = assay: as above; assay type: cell-based; details: Staphylococcus aureus, USA300; MIC; read-out: Minimal Inhibitory Concentrations (μM) S. aureus USA 300
Summary of the method: as §1

S. aureus ATCC 29213 = assay: as above; assay type: cell-based; details: Staphylococcus aureus, ATCC29213; MIC; read-out: Minimal Inhibitory Concentrations (μM) S. aureus ATCC 29213
Summary of the method: as §1

Structure (SMILES) | Minimal Inhibitory Concentrations (μM) S. aureus ΔClpP (S. aureus ΔClpP) [µM] | Mouse [1] | IC50 (Sa-ClpP) [µM] | MIC (MRSA NRS70) [µM] | MIC (E. faecails) [µM] | MIC (S. aureus USA 300) [µM] | MIC (S. aureus ATCC 29213) [µM]
Cc1cccc(C[C@H](NC(=O)Nc2ccc3c(c2)OCO3)C(=O)N[C@H]2COC(=O)[C@@H]3C[C@@H](C)CN3C(=O)[C@H](C)NC(=O)[C@@H]3CN(C)CCN3C(=O)[C@@H]3CCCN3C2=O)c1 [Compound 17, (S)-2-(3-(BENZO[D][1,3]DIOXOL-5-YL)UREIDO)-3-(M-TOLYL)-N-((6AS,12S,15AS,17R,21S,23AS)-2,17,21-TRIMETHYL-6,11,15,20,23-PENTAOXOOCTADECAHYDRO-2H,6H,11H,15H-PYRAZINO[2,1-I]DIPYRROLO[2,1-C:2′,1′-L][1]OXA[4,7,10,13]TETRAAZACYCLOHEXADECIN-12-YL)PROPANAMIDE] ({NH(1,3-benzodioxol-5-yl)-CO}-[Phe(3-Me)]SP[Piperazine(2S-CO,4-Me)]A[Pro(4R-Me)]; ester 2-C) | >20 | 4.83 ± 0.46 h | 6.02 ± 0.2 | 5 (≈ 4.08 µg/mL) | 1.25 (≈ 1.02 µg/mL) | 10 (≈ 8.17 µg/mL) | 20 (≈ 16.3 µg/mL)
Cc1cccc(C[C@H](NC(=O)Nc2ccc3c(c2)OCCO3)C(=O)N[C@@H]2C(=O)N3C[C@H](O)C[C@H]3C(=O)N3CCOC[C@H]3C(=O)N[C@@H](C)C(=O)N3C[C@H](C)C[C@H]3C(=O)O[C@H]2C)c1 [Compound 27, (S)-2-(3-(2,3-DIHYDROBENZO[B][1,4]DIOXIN-6-YL)UREIDO)-N-((6AS,8R,12S,13S,15AS,17R,21S,23AS)-8-HYDROXY-13,17,21-TRIMETHYL-6,11,15,20,23-PENTAOXOOCTADECAHYDRO-6H,11H,15H-[1,4]OXAZINO[3,4-I]DIPYRROLO[2,1-C:2′,1′-L][1]OXA[4,7,10,13]TETRAAZACYCLOHEXADECIN-12-YL)-3-(M-TOLYL)PROPANAMIDE] ({X3-CO}-[Phe(3-Me)][aThr][Hyp][Morpholine(3S-CO)]A[Pro(4R-Me)]; ester 2-C) | >20 | 0.79 ± .795 h | 5.13 ± 0.16 | 10 (≈ 8.48 µg/mL) | 2.5 (≈ 2.12 µg/mL) | 20 (≈ 17 µg/mL) | 10 (≈ 8.48 µg/mL)
Cc1cccc(C[C@H](NC(=O)Nc2ccc(Cl)cc2F)C(=O)N[C@@H]2C(=O)N3CCC[C@H]3C(=O)N3CCN(C)C[C@H]3C(=O)N[C@@H](C)C(=O)N3C[C@H](C)C[C@H]3C(=O)O[C@H]2C)c1 [Compound 11, (S)-2-(3-(4-CHLORO-2-FLUOROPHENYL)UREIDO)-N-((6AS,12S,13S,15AS,17R,21S,23AS)-2,13,17,21-TETRAMETHYL-6,11,15,20,23-PENTAOXOOCTADECAHYDRO-2H,6H,11H,15H-PYRAZINO[2,1-I]DIPYRROLO[2,1-C:2′,1′-L][1]OXA[4,7,10,13]TETRAAZACYCLOHEXADECIN-12-YL)-3-(M-TOLYL)PROPANAMIDE] ({NH(4-Cl-2-F-phenyl)-CO}-[Phe(3-Me)][aThr]P[Piperazine(2S-CO,4-Me)]A[Pro(4R-Me)]; ester 2-C) | >20 | 0.67 ± 0.07 h | 3.45 ± 0.2 | 0.078 (≈ 0.0655 µg/mL) | 0.078 (≈ 0.0655 µg/mL) | 0.078 (≈ 0.0655 µg/mL) | 0.078 (≈ 0.0655 µg/mL)
